We go through 2 compounds from ChEMBL document CHEMBL5316308, “BET-HDAC Dual Inhibitors for Combinational Treatment of Breast Cancer and Concurrent Candidiasis” (J Med Chem, 2023).

One may read the IC50 as the concentration needed to halve the response being measured.

In brackets after ≈: the same amount, converted by molar mass. Activity calls are given as the source filed them. The calls are words filed in the database; no cut-off is given here.

One data set addresses Histone deacetylase 1 (Homo sapiens, UniProt Q13547). As to the kind of experiment: Inhibition of full-length recombinant human HDAC1 (1 to 482 residues) expressed in baculovirus infected insect cells using Ac-Leu-Gly-Lys(Ac)-AMC as substrate incubated for 30 mins by fluorescence based assay. More on the design: species or system Insect cell.
A further data set has as its system K562. The data set can be described thus: Antiproliferative activity against human K562 cells assessed as cell growth inhibition incubated for 24 hrs by CCK-8 assay. The settings on record: K562, 24 h. The data set is classed as functional, cell-based. On the technique in general: Tetrazolium assays rely on reduction of a dye to a coloured formazan, in cell work by metabolically active cells.

A further data set has as its system HEL. As to the kind of experiment: Antiproliferative activity against human HEL cells assessed as cell growth inhibition incubated for 24 hrs by CCK-8 assay. Type of data set: functional, cell-based.
A further data set has as its system HL-60. The data set can be described thus: Antiproliferative activity against human HL-60 cells assessed as cell growth inhibition incubated for 24 hrs by CCK-8 assay. The data set is classed as functional, cell-based. The note with it: HL-60, 24 h.
For data set [1], the system named is MDA-MB-231. As to the kind of experiment: Antiproliferative activity against human MDA-MB-231 cells assessed as cell growth inhibition incubated for 24 hrs by CCK-8 assay. Type of data set: functional, cell-based. The settings on record: MDA-MB-231, 24 h.
The test system of data set [2] is Candida albicans. The data set can be described thus: microbe, parasite or virus in culture. The settings on record: 0304103, time 48 hrs. The data set is classed as functional.
Description: Synergistic antifungal activity against azole-resistant Candida albicans 0304103 assessed as fungal growth inhibition measured after 48 hrs by CLSI based micro-dilution broth method
Data set [3] has as its system Candida albicans. As to the kind of experiment: microbe, parasite or virus in culture. Type of data set: functional. The note with it: 0304103, time 48 hrs. This is another data set of the same source.
Description: Synergistic antifungal activity against azole-resistant Candida albicans 0304103 assessed as fungal growth inhibition measured after 48 hrs in presence of FLC by CLSI based micro-dilution broth method
Data set [4] relates to Candida albicans. The data set is classed as functional, 0304103. The settings on record: time 48 hrs.
Description: Synergistic antifungal activity against azole-resistant Candida albicans 0304103 assessed as fractional inhibitory concentration index measured after 48 hrs in presence of FLC by CLSI based micro-dilution broth method
The target of a further data set is Histone deacetylase 3 (Homo sapiens, UniProt O15379). As to the kind of experiment: Inhibition of His-tagged recombinant human HDAC3 expressed in baculovirus infected insect cells using Ac-Leu-Gly-Lys(Ac)-AMC as substrate incubated for 30 mins by fluorescence based assay. More on the design: species or system Insect cell.
Histone deacetylase 3, sequence (O15379 whole entry): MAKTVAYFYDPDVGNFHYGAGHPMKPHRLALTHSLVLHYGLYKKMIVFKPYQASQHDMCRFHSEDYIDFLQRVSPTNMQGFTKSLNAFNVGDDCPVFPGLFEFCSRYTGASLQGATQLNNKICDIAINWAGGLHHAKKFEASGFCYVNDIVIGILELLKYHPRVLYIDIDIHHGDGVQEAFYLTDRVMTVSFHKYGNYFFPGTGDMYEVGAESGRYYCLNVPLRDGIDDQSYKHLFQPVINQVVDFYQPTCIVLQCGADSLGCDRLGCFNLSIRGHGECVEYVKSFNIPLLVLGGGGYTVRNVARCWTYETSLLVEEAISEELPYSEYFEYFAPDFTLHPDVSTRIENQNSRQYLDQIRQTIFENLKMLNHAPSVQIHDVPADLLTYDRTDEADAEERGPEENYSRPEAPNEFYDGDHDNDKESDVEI
Data set [5] has as its target T1, Protein deacetylase HDAC6 (Homo sapiens, UniProt Q9UBN7).
T1 sequence (Q9UBN7 whole entry): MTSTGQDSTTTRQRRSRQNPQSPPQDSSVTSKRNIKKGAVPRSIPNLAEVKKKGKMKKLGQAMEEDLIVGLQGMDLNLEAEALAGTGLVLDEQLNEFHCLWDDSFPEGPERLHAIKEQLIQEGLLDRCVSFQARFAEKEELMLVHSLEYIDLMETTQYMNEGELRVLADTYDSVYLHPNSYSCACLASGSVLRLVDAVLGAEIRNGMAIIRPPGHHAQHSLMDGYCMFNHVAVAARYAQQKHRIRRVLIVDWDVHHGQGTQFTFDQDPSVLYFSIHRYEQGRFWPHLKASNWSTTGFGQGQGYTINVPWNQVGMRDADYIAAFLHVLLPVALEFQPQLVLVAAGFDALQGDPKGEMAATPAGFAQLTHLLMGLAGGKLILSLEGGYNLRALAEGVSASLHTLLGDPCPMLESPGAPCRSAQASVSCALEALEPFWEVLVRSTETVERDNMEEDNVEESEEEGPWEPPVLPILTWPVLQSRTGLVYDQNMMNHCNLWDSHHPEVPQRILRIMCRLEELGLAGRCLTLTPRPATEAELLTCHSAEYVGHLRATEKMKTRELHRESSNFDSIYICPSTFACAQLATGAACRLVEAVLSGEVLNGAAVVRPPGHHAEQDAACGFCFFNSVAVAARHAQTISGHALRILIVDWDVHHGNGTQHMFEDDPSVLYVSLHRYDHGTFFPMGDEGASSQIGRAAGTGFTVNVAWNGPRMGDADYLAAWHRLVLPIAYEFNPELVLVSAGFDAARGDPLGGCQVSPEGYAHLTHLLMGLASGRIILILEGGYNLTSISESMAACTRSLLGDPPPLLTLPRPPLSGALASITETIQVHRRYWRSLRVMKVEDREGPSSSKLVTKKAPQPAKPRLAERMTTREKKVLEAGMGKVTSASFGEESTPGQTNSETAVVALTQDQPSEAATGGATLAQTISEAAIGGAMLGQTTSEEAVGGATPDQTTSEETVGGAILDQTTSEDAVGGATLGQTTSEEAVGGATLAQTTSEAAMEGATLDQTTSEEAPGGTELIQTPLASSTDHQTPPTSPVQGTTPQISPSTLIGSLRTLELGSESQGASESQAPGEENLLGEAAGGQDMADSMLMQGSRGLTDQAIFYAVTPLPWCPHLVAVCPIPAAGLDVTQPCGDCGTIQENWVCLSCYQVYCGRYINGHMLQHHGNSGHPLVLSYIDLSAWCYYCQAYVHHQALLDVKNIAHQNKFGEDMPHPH
As to the kind of experiment: Inhibition of N-terminal GST-tagged recombinant human HDAC6 expressed in baculovirus infected Sf9 insect cells using Ac-Leu-Gly-Lys(Ac)-AMC as substrate incubated for 30 mins by fluorescence based assay.

In data set [6] the target is Bromodomain-containing protein 2 (Homo sapiens, UniProt P25440). As to the kind of experiment: Inhibition of recombinant BRD2 BD1 (unknown origin) incubated for 120 mins by TR-FRET assay. Background: In TR-FRET formats the signal depends on donor and acceptor labels being close together.
Bromodomain-containing protein 2, sequence (P25440 whole entry): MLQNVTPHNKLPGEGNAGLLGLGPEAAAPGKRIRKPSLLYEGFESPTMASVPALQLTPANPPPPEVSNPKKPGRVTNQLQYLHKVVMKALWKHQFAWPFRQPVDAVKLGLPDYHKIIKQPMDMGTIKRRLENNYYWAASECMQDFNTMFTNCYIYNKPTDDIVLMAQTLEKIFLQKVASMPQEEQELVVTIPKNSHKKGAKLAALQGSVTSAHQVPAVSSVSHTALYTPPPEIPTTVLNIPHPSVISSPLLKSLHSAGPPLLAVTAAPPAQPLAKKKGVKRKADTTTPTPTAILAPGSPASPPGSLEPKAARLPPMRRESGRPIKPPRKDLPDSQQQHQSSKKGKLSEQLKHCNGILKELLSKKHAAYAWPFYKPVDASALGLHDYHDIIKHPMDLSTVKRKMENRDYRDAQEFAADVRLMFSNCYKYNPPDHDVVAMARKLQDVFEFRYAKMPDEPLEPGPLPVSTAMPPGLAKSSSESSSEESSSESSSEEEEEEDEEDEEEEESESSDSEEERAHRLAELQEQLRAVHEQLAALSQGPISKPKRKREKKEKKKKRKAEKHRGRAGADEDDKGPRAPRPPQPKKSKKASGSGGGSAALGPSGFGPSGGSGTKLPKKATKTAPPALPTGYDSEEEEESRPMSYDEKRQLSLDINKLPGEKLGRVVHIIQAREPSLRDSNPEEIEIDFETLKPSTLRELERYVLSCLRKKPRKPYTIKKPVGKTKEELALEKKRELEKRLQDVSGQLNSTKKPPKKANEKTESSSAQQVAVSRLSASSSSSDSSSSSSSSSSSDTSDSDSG
The target of data set [7] is Bromodomain-containing protein 3 (Homo sapiens, UniProt Q15059). As to the kind of experiment: Inhibition of recombinant BRD3 BD1 (unknown origin) incubated for 120 mins by TR-FRET assay.
Bromodomain-containing protein 3, sequence (Q15059 whole entry): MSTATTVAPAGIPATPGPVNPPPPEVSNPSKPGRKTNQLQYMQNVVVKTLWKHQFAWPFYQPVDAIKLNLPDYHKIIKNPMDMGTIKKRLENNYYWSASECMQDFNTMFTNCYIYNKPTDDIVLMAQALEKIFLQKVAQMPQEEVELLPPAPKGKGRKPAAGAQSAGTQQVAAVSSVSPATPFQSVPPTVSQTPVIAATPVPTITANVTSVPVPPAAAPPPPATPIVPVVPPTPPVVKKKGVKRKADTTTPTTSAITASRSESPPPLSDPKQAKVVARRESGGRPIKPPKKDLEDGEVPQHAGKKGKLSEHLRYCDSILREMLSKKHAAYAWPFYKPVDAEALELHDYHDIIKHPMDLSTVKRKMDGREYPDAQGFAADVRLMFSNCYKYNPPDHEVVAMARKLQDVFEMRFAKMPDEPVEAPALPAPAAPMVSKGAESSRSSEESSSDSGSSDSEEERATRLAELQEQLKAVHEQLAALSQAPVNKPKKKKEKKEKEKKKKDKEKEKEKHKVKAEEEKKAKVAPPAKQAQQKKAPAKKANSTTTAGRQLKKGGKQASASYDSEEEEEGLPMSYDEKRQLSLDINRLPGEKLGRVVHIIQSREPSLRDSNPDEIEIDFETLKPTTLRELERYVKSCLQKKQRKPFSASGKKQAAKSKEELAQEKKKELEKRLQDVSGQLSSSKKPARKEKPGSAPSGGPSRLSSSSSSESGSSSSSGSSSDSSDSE
Data set [8] has as its target Bromodomain testis-specific protein (Homo sapiens, UniProt Q58F21). The data set can be described thus: Inhibition of recombinant BRDT BD1 (unknown origin) incubated for 120 mins by TR-FRET assay.
Data set [9] relates to MDA-MB-231. As to the kind of experiment: Downregulation of c-Myc expression in human MDA-MB-231 cells incubated for 24 hrs by Western blot analysis. The settings on record: dose 0.2-5 µM. Type of data set: functional, cell-based.
Data set [10] deals with MDA-MB-231. The data set can be described thus: Induction of apoptosis in human MDA-MB-231 cells incubated for 48 hrs by Annexin V-FITC/PI staining based flow cytometry. The data set is classed as functional, cell-based. The note with it: dose 2.5-10 µM. Background: Flow cytometry measures light scatter and fluorescence of single cells or particles in a stream.
In data set [11] the test system is MDA-MB-231. The data set can be described thus: Induction of apoptosis in human MDA-MB-231 cells assessed as late apoptotic cells at 2.5 uM incubated for 48 hrs by Annexin V-FITC/PI staining based flow cytometry relative to control. Type of data set: functional.
The subject of data set [12] is MDA-MB-231. As to the kind of experiment: Induction of apoptosis in human MDA-MB-231 cells assessed as late apoptotic cells at 10 uM incubated for 48 hrs by Annexin V-FITC/PI staining based flow cytometry relative to control. Type of data set: functional.
Data set [13] concerns Candida albicans. The data set can be described thus: Synergistic antifungal activity against azole-resistant Candida albicans 0304103 assessed as fungal growth inhibition at 32 ug/ml measured upto 24 hrs in presence of 1 to 4 ug/ml FLC by absorbance based assay. The data set is classed as functional, organism-based. The settings on record: dose 32.0 µg/ml.
Data set [14] deals with Candida albicans. The data set can be described thus: Synergistic antifungal activity against azole-resistant Candida albicans 0304103 assessed as fungal growth inhibition measured upto 24 hrs in presence of FLC by absorbance based assay. Type of data set: functional, organism-based. The note with it: dose 4-16 µg/ml.
The test system of data set [15] is Candida albicans. As to the kind of experiment: Synergistic antifungal activity FLC-resistant Candida albicans 0304103 assessed as hyphal formation at 32 ug/ml incubated for 3 hrs in presence of FLC by inverse fluorescent microscopy. Type of data set: functional, organism-based. The settings on record: dose 32.0 µg/ml.
Data set [16] can be described thus: Metabolic stability in ICR mouse liver microsome assessed as clearance. The note with it: liver microsomes, read-out: CLH. Type of data set: ADME.
Data set [17] has as its system MDA-MB-231. As to the kind of experiment: Antitumor activity against human MDA-MB-231 cells xenografted in Balb/c nude mouse assessed as tumor growth inhibition at 10 mg/kg, ip qd for 21 consecutive days relative to control. Type of data set: functional. The settings on record: MDA-MB-231, 480 h, time 20 day, read-out: TGI.
The subject of data set [18] is Candida albicans. The data set can be described thus: Synergistic antifungal activity against Candida albicans 0304103 infected in ICR mouse assessed as decrease in kidney fungal load at 10 to 20 mg/kg, ip for 5 consecutive days. The settings on record: dose 10-20 mg/kg, time 5.0 day. The data set is classed as functional, organism-based.

Histone deacetylase 1, sequence (Q13547 whole entry, the tested form may be a part): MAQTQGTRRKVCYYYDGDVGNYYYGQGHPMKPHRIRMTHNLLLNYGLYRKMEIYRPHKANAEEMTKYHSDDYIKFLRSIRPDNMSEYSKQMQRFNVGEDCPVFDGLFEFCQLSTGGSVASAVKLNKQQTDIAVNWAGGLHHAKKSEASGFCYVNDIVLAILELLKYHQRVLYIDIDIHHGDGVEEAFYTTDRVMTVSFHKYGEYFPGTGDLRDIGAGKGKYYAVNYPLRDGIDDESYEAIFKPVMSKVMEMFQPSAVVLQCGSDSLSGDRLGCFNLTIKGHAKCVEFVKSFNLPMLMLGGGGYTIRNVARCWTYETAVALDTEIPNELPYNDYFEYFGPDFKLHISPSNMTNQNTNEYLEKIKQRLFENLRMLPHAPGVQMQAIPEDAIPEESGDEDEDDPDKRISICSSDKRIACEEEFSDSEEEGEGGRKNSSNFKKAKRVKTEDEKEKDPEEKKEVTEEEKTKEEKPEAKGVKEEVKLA

With `COc1cc2c(cc1-c1c(C)noc1C)[nH]c1nc(C)nc(NCCCCCCC(=O)NO)c12`, the IC50 is 19 nM on Histone deacetylase 1; 2500 nM with K562; 900 nM with HEL; 1900 nM in the data set on HL-60; 1000 nM in the data set with MDA-MB-231 [1]; 213 nM on Histone deacetylase 3. The IC50 in data set [5] was found to be 14 nM; in data set [6], 2010 nM; in [7] it was 2590 nM; in data set [8], 1110 nM. The results for the MIC80 in the data set with Candida albicans [2] and against Candida albicans [3] were over 64 µg/mL and 8 µg/mL (≈ 17.1 µM), respectively. Also, the “fractional inhibitory concentration index (FICI)” value in the data set with Candida albicans [4] is given as 0.25. In addition, the Activity entry in the data set on MDA-MB-231 [9] is “Dose-Dependent Effect”; with MDA-MB-231 [10], “Dose-Dependent Effect”; with MDA-MB-231 [11], 8.35%; with MDA-MB-231 [12], 49.38%; with Candida albicans [14], “Dose-Dependent Effect”. Also, the result in the data set on Candida albicans [13] and in the data set with Candida albicans [18] was Active. Besides, the result in the data set with Candida albicans [15] was inactive. Further, the CLint scaled in data set [16] worked out at 285 mL/min/kg. In addition, the inhibition in vivo at 10 mg/kg with MDA-MB-231 [17] turned out to be 67.9%.
Turning to `COc1cc2c(cc1-c1c(C)noc1C)[nH]c1ncnc(NCCCCCCC(=O)NO)c12`, the IC50 was found to be 10 nM at Histone deacetylase 1; 2500 nM with K562; 3900 nM with HEL; 1200 nM in the data set on HL-60; 500 nM with MDA-MB-231 [1]; 161 nM at Histone deacetylase 3. In addition, the IC50 in [5] stood at 9 nM; in [6] it was 174 nM; in data set [7], 113 nM; in data set [8], 221 nM. The MIC80 against Candida albicans [2] was over 64 µg/mL; with Candida albicans [3] it was 0.5 µg/mL (≈ 1.1 µM). Further, in the data set on Candida albicans [4], the “fractional inhibitory concentration index (FICI)” value was 0.07. Besides, the Activity result in the data set on MDA-MB-231 [9] was “Dose-Dependent Effect”; in the data set with MDA-MB-231 [10], “Dose-Dependent Effect”; in the data set on MDA-MB-231 [11] it was 25.19%; in the data set with MDA-MB-231 [12], 69.85%; with Candida albicans [14] it was “Dose-Dependent Effect”. For the same compound, the outcome with Candida albicans [13] and with Candida albicans [18] was Active. In the data set on Candida albicans [15], the outcome was inactive. In addition, in data set [16], the CLint scaled amounted to 103 mL/min/kg. For the same compound, the inhibition in vivo at 10 mg/kg with MDA-MB-231 [17] was found to be 64.9%.
